The text below walks through data of patent US9204653B2, “5-fluoro pyrimidine derivatives” (DOW AGROSCIENCES LLC, priority 2008, dated 2015).

This experiment relates to Mycosphaerella graminicola; Anamorph: Septoria tritici; Bayer Code SEPTTR. Kind of experiment: Leaf blotch of wheat, foliar fungicide treatment, one day protectant (1DP) or three day curative (3DC). It is filed as in vivo, Septoria tritici on wheat plants (variety Yuma). To be noted: Zymoseptoria tritici, rating of percent disease control.
Setting [1] is: 24 h, one day protectant (1DP), read-out: SETTTR 1DP 25 ppm.
Setting [2] is: 24 h, one day protectant (1DP), read-out: SEPTTR 1DP 100 ppm.
Where [3] appears, read: 72 h, three day curative (3DC), read-out: SEPTTR 3DC 25 ppm.
The mark [4] stands for this setting: 72 h, three day curative (3DC), read-out: SEPTTR 3DC 100 ppm.

Like-named read-outs stand apart in the source and are kept apart here.

Turning to `Cc1c(F)c(F)c(COc2ncc(F)c(N)n2)c(F)c1F` [Compound 500], the pest or weed control at 25 ppm runs as follows: under setting [1], 76 to 100%; under setting [3], 76 to 100%. Moreover, the pest or weed control at 100 ppm reads like this: under setting [2], 76 to 100%; under setting [4], 76 to 100%.
As for `O=C(Nc1nc(OCc2ccc(F)cc2)ncc1F)C(F)F` [Compound 501], the pest or weed control at 25 ppm was 76 to 100% under setting [1] and 76 to 100% under setting [3]. Moreover, the pest or weed control at 100 ppm by setting is: under setting [2], 76 to 100%; under setting [4], 76 to 100%.
As for `CC(Oc1ncc(F)c(N)n1)c1cc(Cl)c(Cl)cc1Cl` (stereo not drawn) [Compound 502], the pest or weed control at 25 ppm is, setting by setting: under setting [1], 0 to 25%; under setting [3], 0 to 25%. In addition, the pest or weed control at 100 ppm reads like this: under setting [2], 0 to 25%; under setting [4], 0 to 25%.
In the case of `CC[Si](CC)(CC)Nc1nc(OCc2cccs2)ncc1F` [Compound 503], the pest or weed control at 25 ppm under setting [1] was 76 to 100% and the pest or weed control at 25 ppm under setting [3] is 76 to 100%. Besides, the pest or weed control at 100 ppm was in the range of 76 to 100% under setting [2] and 76 to 100% under setting [4].
`N#Cc1cccc(COc2ncc(F)c(NC(=S)NCc3ccccc3F)n2)c1` [Compound 504]: the pest or weed control at 25 ppm by setting is: under setting [1], 0 to 25%; under setting [3], 0 to 25%. In addition, the pest or weed control at 100 ppm lay in the range of 51 to 75% under setting [2] and 0 to 25% under setting [4].
For the molecule `Fc1cnc(OCc2cccs2)nc1NCOCc1ccccc1` [Compound 506], the pest or weed control at 25 ppm is, setting by setting: under setting [1], 26 to 50%; under setting [3], 0 to 25%. Besides, the pest or weed control at 100 ppm is 76 to 100% under setting [2] and 0 to 25% under setting [4].
In the case of `CC[Si](CC)(CC)Nc1nc(OCCc2ccc(Cl)cc2)ncc1F` [Compound 507], the pest or weed control at 25 ppm runs as follows: under setting [1], 51 to 75%; under setting [3], 0 to 25%. In addition, the pest or weed control at 100 ppm lay in the range of 76 to 100% under setting [2] and 76 to 100% under setting [4].
`Nc1nc(OCc2ccsc2)ncc1F` [Compound 508]: the pest or weed control at 25 ppm is, setting by setting: under setting [1], 76 to 100%; under setting [3], 76 to 100%. In addition, the pest or weed control at 100 ppm lay in the range of 76 to 100% under setting [2] and 76 to 100% under setting [4].
`Nc1nc(OCC2CC2(F)F)ncc1F` (stereo not drawn) [Compound 509]: the pest or weed control at 25 ppm reads like this: under setting [1], 0 to 25%; under setting [3], 26 to 50%. Moreover, the pest or weed control at 100 ppm runs as follows: under setting [2], 0 to 25%; under setting [4], 0 to 25%.
`Cn1ccc2cc(COc3ncc(F)c(N)n3)ccc21` [Compound 511]: the pest or weed control at 25 ppm by setting is: under setting [1], 51 to 75%; under setting [3], 26 to 50%. The pest or weed control at 100 ppm runs as follows: under setting [2], 51 to 75%; under setting [4], 26 to 50%.
For `CCC(Oc1ncc(F)c(N)n1)c1ccc(F)cc1` (stereo not drawn) [Compound 513], the pest or weed control at 25 ppm under setting [1] is 76 to 100% and the pest or weed control at 25 ppm under setting [3] lay within 76 to 100%. For the same molecule, the pest or weed control at 100 ppm reads like this: under setting [2], 76 to 100%; under setting [4], 76 to 100%.
As to `Fc1ccc(COc2ncc(F)c(NNc3ccccc3Cl)n2)cc1` [Compound 515], the pest or weed control at 25 ppm under setting [1] lay within 0 to 25% and the pest or weed control at 25 ppm under setting [3] lay in the range of 0 to 25%. The pest or weed control at 100 ppm lay within 76 to 100% under setting [2] and 0 to 25% under setting [4].
Regarding `CCOCNc1nc(OCc2cccc(C#N)c2)ncc1F` [Compound 516], the pest or weed control at 25 ppm reads like this: under setting [1], 76 to 100%; under setting [3], 76 to 100%. Also, the pest or weed control at 100 ppm fell in the range of 76 to 100% under setting [2] and 76 to 100% under setting [4].
In the case of `COC(=O)Oc1ncc(F)c(/N=C/N(C)C)n1` [Compound 517], the pest or weed control at 25 ppm is, setting by setting: under setting [1], 76 to 100%; under setting [3], 76 to 100%. Further, the pest or weed control at 100 ppm by setting is: under setting [2], 76 to 100%; under setting [4], 76 to 100%.
Turning to `CCCCN(C)/C=N/c1nc(OCc2ccc(F)cc2)ncc1F` [Compound 518], the pest or weed control at 25 ppm runs as follows: under setting [1], 76 to 100%; under setting [3], 76 to 100%. For the same molecule, the pest or weed control at 100 ppm was in the range of 76 to 100% under setting [2] and 76 to 100% under setting [4].
`COc1ccc(COc2ncc(F)c(NC(=O)Nc3ccccc3F)n2)cc1F` [Compound 519]: the pest or weed control at 25 ppm fell in the range of 0 to 25% under setting [1] and 0 to 25% under setting [3]. Further, the pest or weed control at 100 ppm lay within 0 to 25% under setting [2] and 0 to 25% under setting [4].
Regarding `N#Cc1ccnc(COc2ncc(F)c(N)n2)c1` [Compound 522], the pest or weed control at 25 ppm runs as follows: under setting [1], 0 to 25%; under setting [3], 0 to 25%. In addition, the pest or weed control at 100 ppm by setting is: under setting [2], 26 to 50%; under setting [4], 0 to 25%.
As for `COc1ccc(OC(=O)Oc2ncc(F)c(/N=C/N(C)C)n2)cc1` [Compound 523], the pest or weed control at 25 ppm is, setting by setting: under setting [1], 76 to 100%; under setting [3], 76 to 100%. The pest or weed control at 100 ppm runs as follows: under setting [2], 76 to 100%; under setting [4], 76 to 100%.
Turning to `O=[N+]([O-])c1ccccc1SNc1nc(OCc2cc(F)c(F)c(F)c2)ncc1F` [Compound 525], the pest or weed control at 25 ppm lay within 76 to 100% under setting [1] and 76 to 100% under setting [3]. The pest or weed control at 100 ppm lay within 76 to 100% under setting [2] and 76 to 100% under setting [4].
Turning to `O=[N+]([O-])c1ccccc1SNc1nc(OCc2ccc(F)c(C(F)(F)F)c2)ncc1F` [Compound 527], the pest or weed control at 25 ppm by setting is: under setting [1], 51 to 75%; under setting [3], 0 to 25%. Also, the pest or weed control at 100 ppm under setting [2] fell in the range of 76 to 100% and the pest or weed control at 100 ppm under setting [4] was in the range of 0 to 25%.
As for `CCCNC(=S)Nc1nc(OCc2cccs2)ncc1F` [Compound 528], the pest or weed control at 25 ppm reads like this: under setting [1], 76 to 100%; under setting [3], 0 to 25%. The pest or weed control at 100 ppm runs as follows: under setting [2], 76 to 100%; under setting [4], 51 to 75%.
Regarding `O=C(Nc1ccsc1)Nc1nc(OCCNc2ccccc2)ncc1F` [Compound 529], the pest or weed control at 25 ppm runs as follows: under setting [1], 0 to 25%; under setting [3], 0 to 25%. In addition, the pest or weed control at 100 ppm reads like this: under setting [2], 0 to 25%; under setting [4], 0 to 25%.
As for `CN1CCCC/C1=N\c1nc(OCc2cccs2)ncc1F` [Compound 530], the pest or weed control at 25 ppm is, setting by setting: under setting [1], 76 to 100%; under setting [3], 51 to 75%. Further, the pest or weed control at 100 ppm is, setting by setting: under setting [2], 76 to 100%; under setting [4], 76 to 100%.
Regarding `COc1cccc(COc2ncc(F)c(NC(=O)OCc3ccccc3)n2)c1` [Compound 531], the pest or weed control at 25 ppm under setting [1] lay within 76 to 100% and the pest or weed control at 25 ppm under setting [3] was in the range of 76 to 100%. The pest or weed control at 100 ppm under setting [2] fell in the range of 76 to 100% and the pest or weed control at 100 ppm under setting [4] is 76 to 100%.
Regarding `COc1cccc(COc2ncc(F)c(N/N=C/c3ncc[nH]3)n2)c1` [Compound 532], the pest or weed control at 25 ppm reads like this: under setting [1], 26 to 50%; under setting [3], 0 to 25%. Also, the pest or weed control at 100 ppm runs as follows: under setting [2], 51 to 75%; under setting [4], 26 to 50%.
For `CCC(C)/C(C)=N/Nc1nc(OCc2ccc(C)cc2)ncc1F` (stereo not drawn) [Compound 533], the pest or weed control at 25 ppm is, setting by setting: under setting [1], 51 to 75%; under setting [3], 0 to 25%. The pest or weed control at 100 ppm was in the range of 51 to 75% under setting [2] and 26 to 50% under setting [4].
With `CCCNC(=O)Nc1nc(OCc2cccc(OC)c2)ncc1F` [Compound 534], the pest or weed control at 25 ppm is, setting by setting: under setting [1], 0 to 25%; under setting [3], 0 to 25%. Further, the pest or weed control at 100 ppm runs as follows: under setting [2], 26 to 50%; under setting [4], 26 to 50%.
As to `COc1cccc(COc2ncc(F)c(NC(=O)Nc3ccccc3F)n2)c1` [Compound 535], the pest or weed control at 25 ppm is, setting by setting: under setting [1], 0 to 25%; under setting [3], 0 to 25%. Also, the pest or weed control at 100 ppm is, setting by setting: under setting [2], 0 to 25%; under setting [4], 0 to 25%.
Consider `CCCNC(=O)Nc1nc(OCc2ccc(C)cc2)ncc1F` [Compound 536], for which the pest or weed control at 25 ppm is 0 to 25% under setting [1] and 26 to 50% under setting [3]. The pest or weed control at 100 ppm under setting [2] lay in the range of 0 to 25% and the pest or weed control at 100 ppm under setting [4] was in the range of 26 to 50%.
`CCCCOc1ccc(COc2ncc(F)c(N)n2)cc1` [Compound 537]: the pest or weed control at 25 ppm by setting is: under setting [1], 76 to 100%; under setting [3], 76 to 100%. Further, the pest or weed control at 100 ppm by setting is: under setting [2], 76 to 100%; under setting [4], 76 to 100%.
In the case of `Fc1ccccc1NC(=S)Nc1nc(OCc2ccccc2)ncc1F` [Compound 539], the pest or weed control at 25 ppm is, setting by setting: under setting [1], 76 to 100%; under setting [3], 0 to 25%. The pest or weed control at 100 ppm under setting [2] was in the range of 76 to 100% and the pest or weed control at 100 ppm under setting [4] was 0 to 25%.
As for `Nc1nc(OCc2ccc(Cl)cc2Cl)ncc1F` [Compound 540], the pest or weed control at 25 ppm by setting is: under setting [1], 76 to 100%; under setting [3], 76 to 100%. For the same molecule, the pest or weed control at 100 ppm by setting is: under setting [2], 76 to 100%; under setting [4], 76 to 100%.
Consider `COc1ccccc1COc1ncc(F)c(/N=C/N2CCOCC2)n1` [Compound 541], for which the pest or weed control at 25 ppm is 76 to 100% under setting [1] and 76 to 100% under setting [3]. Further, the pest or weed control at 100 ppm is, setting by setting: under setting [2], 76 to 100%; under setting [4], 76 to 100%.
Regarding `CCOCc1cccc(COc2ncc(F)c(N)n2)c1` [Compound 543], the pest or weed control at 25 ppm is, setting by setting: under setting [1], 76 to 100%; under setting [3], 76 to 100%. Besides, the pest or weed control at 100 ppm under setting [2] lay in the range of 76 to 100% and the pest or weed control at 100 ppm under setting [4] lay within 76 to 100%.
On to `CC(Oc1ncc(F)c(N)n1)c1c(F)c(F)c(F)c(F)c1F` (stereo not drawn) [Compound 544], for which the pest or weed control at 25 ppm is, setting by setting: under setting [1], 0 to 25%; under setting [3], 0 to 25%. Further, the pest or weed control at 100 ppm is, setting by setting: under setting [2], 26 to 50%; under setting [4], 0 to 25%.
As to `CN(C)CCOc1ncc(F)c(N)n1` [Compound 545], the pest or weed control at 25 ppm under setting [1] is 0 to 25% and the pest or weed control at 25 ppm under setting [3] was 0 to 25%. The pest or weed control at 100 ppm lay within 26 to 50% under setting [2] and 51 to 75% under setting [4].
